In patent US20200289514A1, “Novel Pyrazolo Pyrimidine Derivatives” (Novartis AG, priority 2015, published 2020):
≈ marks a conversion by molar mass, not a printed value. Read-outs that look alike come from different tables or passages of the source.

Assays:
Human IL2 promoter = Human IL2 promoter reporter gene assay (RGA) in Jurkat cells; type: cell-based; details: Jurkat clone K22 290_H23, anti-CD28 mAb + PMA, 5.5 h
Procedure: Human IL2 Promoter Reporter Gene Assay (RGA) in Jurkat Cells
The transfected Jurkat clone K22 290_H23 was propagated in RPMI 1640 supplemented with 10% heat inactivated fetal calf serum, 50 μM 2-mercaptoethanol and 1 mg/ml Geneticin. The cell concentration should not exceed 1×10e6/ml during culturing. The cells should not exceed passage 30. Prior to the assay the cells were washed and prepared to the concentration of 2×10e6 cells/ml.
Compound dilutions were made as 2×-concentrated solutions then diluted ½ by addition to cells. Two hundred and fifty μl of compound dilution and 250 μl of cells were mixed together in wells of a 96-deep well plate. Cells/compounds premix were incubated 30 min at 37° C. and 5% CO2 directly in the deep well plate.
After pre-incubation of cells with compounds, cells were stimulated with anti-CD28 mAb (clone 15E8) at 3 μg/ml+PMA at 1 μg/ml. Both co-stimulants were diluted in culture medium at a 10×-concentrated solution. 10 μl of co-stimulants were pipetted into the white 96-well plates and 100 μl of cell/compound mix was immediately added in duplicates. The cells were stimulated for 5.5 h at 37° C. and 5% CO2.
After cell stimulation, 50 μl of BriteLitePlus reagent (Perkin Elmer) was added to each well and the bioluminescence was measured with a Wallac EnVision reader (Perkin Elmer).

[1] = Solubility in aqueous and biorelevant media; type: physicochemical; details: Free form, read-out: Solubility mg/mL [pH] Free form
[2] = target: T1, C-domain of MALT1 (amino acids 329-824) (Homo sapiens, UniProt Q9UDY8); test: MALT1 Biochemical Assay - Version 1 (fluorescence lifetime)
T1 sequence (Q9UDY8 329-824): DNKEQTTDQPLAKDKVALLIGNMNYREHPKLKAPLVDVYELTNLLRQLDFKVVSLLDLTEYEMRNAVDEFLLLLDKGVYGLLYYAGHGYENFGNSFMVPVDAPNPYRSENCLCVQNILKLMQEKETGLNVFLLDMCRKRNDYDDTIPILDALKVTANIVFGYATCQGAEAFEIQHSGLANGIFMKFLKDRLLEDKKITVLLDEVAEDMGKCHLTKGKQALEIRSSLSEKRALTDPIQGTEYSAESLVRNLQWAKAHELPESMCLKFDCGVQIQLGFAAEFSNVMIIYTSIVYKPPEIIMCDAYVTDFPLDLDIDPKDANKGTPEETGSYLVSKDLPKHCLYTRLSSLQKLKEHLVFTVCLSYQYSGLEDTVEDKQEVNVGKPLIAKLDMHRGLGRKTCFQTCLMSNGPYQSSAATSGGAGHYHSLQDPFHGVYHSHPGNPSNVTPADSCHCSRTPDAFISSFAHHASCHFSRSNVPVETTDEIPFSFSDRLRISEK
Procedure: The readout parameter is the increase of fluorescence lifetime over time, proportional to enzyme activity.
The assay employs a short peptide substrate labeled with the single fluorophore PT14 as a fluorescence lifetime probe sensitive to the cleavage state of the substrate (PT14: 6-(9-oxo-9H-acridin-10-yl)-hexanoate, AssayMetrics, UK). […] Test compounds were dissolved in 100% (v/v) DMSO or a mixture containing 90% (v/v) DMSO and 10% (v/v) H2O at a stock concentration of 100 mM. Serial dilutions of test compounds were prepared using either 100% (v/v) DMSO or a mixture containing 90% (v/v) DMSO and 10% (v/v) H2O.

[3] = target: T1, C-domain of MALT1 (amino acids 329-824); test: MALT1 Biochemical Assay - Version 2 (fluorescence intensity); parameters: C-domain of MALT1 (amino acids 329-824); details: fluorescence intensity readout, Rh110 substrate
Procedure: Alternatively the biochemical activity of some examples, namely example 43 and the Reference compound, were determined by measuring fluorescence intensity as described below:
MALT1 Biochemical Assay—Version 2:
The readout parameter is the increase of fluorescence intensity, proportional to enzyme activity.
The assay employs a short peptide substrate labeled with the fluorophore Rhodamine 110 (Rh110) as a fluorescence probe sensitive to the cleavage state of the substrate. The peptide substrate has the following sequence: Ac-Leu-Arg-Ser-Arg^Rh110-dPro (Product number BS-3027, Biosyntan, Germany; within the substrate sequence, A indicates the scissile bond). […] The assay was established for the 384-well plate format using black microtiter well plates. Test compounds were dissolved in 100% (v/v) DMSO or a mixture containing 90% (v/v) DMSO and 10% (v/v) H2O at a stock concentration of 100 mM. Serial dilutions of test compounds were prepared using either 100% (v/v) DMSO or a mixture containing 90% (v/v) DMSO and 10% (v/v) H2O.
y=A2+(A1−A2)/(1+(x/IC50)^ p) where y is the %-inhibition at the inhibitor concentration, x. A1 is the lowest inhibition value, and A2 the maximum inhibition value. The exponent, p, is the Hill coefficient.

Row | SMILES | IC50 (Human IL2 promoter) [nM] | solubility ([1]; Fasted state simulated intestinal fluid FaSSIF (V2) pH 6.5, [pH] 6.64) [mg/mL] | solubility ([1]; Fed state intestinal fluid FeSSIF (V2) pH 5.8, [pH] 5.85) [mg/mL] | solubility ([1]; Simulated Gastric Fluid (SGF) pH 2.0, [pH] 1.99) [mg/mL] | solubility ([1]; Water, [pH] 7.76) [mg/mL] | solubility ([1]; aqueous buffer, 19.12 mM Sodium Maleate (blank FaSSIF) pH 6.5, [pH] 6.61) [mg/mL] | solubility ([1]; aqueous buffer, 100 mM Sodium Acetate pH 4.0, [pH] 3.99) [mg/mL] | solubility ([1]; simulated gastric fluid, HCl/KCl pH 1.0, [pH] 1.12) [mg/mL] | IC50 [2] [nM] | IC50 [3] [nM]
1 | CO[C@@H](C)c1c(NC(=O)Nc2ccnc(C(F)F)c2)cnc2cc(F)nn12 [Example 2, (S)-1-(2-(difluoromethyl)pyridin-4-yl)-3-(2-fluoro-7-(1-methoxyethyl)pyrazolo[1,5-a]pyrimidin-6-yl)urea] | 47 | 0.041 (≈ 108 µM) | 0.093 (≈ 245 µM) | 0.338 (≈ 889 µM) | 0.029 (≈ 76.2 µM) | 0.026 (≈ 68.4 µM) | 0.032 (≈ 84.1 µM) | > 2 | 18 | –
2 | CO[C@@H](C)c1c(NC(=O)Nc2cnc(C(N)=O)c(Cl)c2)cnc2cc(F)nn12 [Example 43, (S)-3-chloro-5-(3-(2-fluoro-7-(1-methoxyethyl)pyrazolo[1,5-a]pyrimidin-6-yl)ureido)picolinamide] | 69 | – | – | – | – | – | – | – | – | 8
3 | CC(C)[C@H](NC(=O)OCc1ccccc1)C(=O)N[C@@H](C)C(=O)N[C@@H](CC(=O)OC(C)(C)C)C(=O)COC(=O)c1c(Cl)cccc1Cl [Reference**, reference compound] | – | – | – | – | – | – | – | – | 12 | 6
